Where two headings read alike, the source gives them in different places.
System: breast cancer cell lines (e.g. MDA-MB-231, SK-BR-3, MDA-MB-468, HCC1954)
Experiment: Cell based assay, cell viability (CellTiter-Glo), breast cancer cell lines
How it was run: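 ATP content as viability surrogate, luminescent read; 72 h compound, 0–2 μM final; cells plated 24 h prior.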

[1] = Breast cancer cell line MDA-MB-231-L/DOX, 72 hours, CellTiter-Glo, read-out: IC50, MDA-MB-231-L/DOX
[2] = Homo sapiens, Breast cancer cell line BT-20, 72 hours, CellTiter-Glo, read-out: IC50, BT-20
[3] = Homo sapiens, Breast cancer cell line HCC1395, 72 hours, CellTiter-Glo, read-out: IC50, HCC1395
[4] = Homo sapiens, Breast cancer cell line HCC1954, 72 hours, CellTiter-Glo, read-out: IC50, HCC1954
[5] = Homo sapiens, Breast cancer cell line JIMT-1, 72 hours, CellTiter-Glo, read-out: IC50, JIMT-1
[6] = Homo sapiens, Breast cancer cell line MCF7, 72 hours, CellTiter-Glo, read-out: IC50, MCF7
[7] = Homo sapiens, Breast cancer cell line MDA-MB-231, 72 hours, CellTiter-Glo, read-out: IC50, MDA-MB-231
[8] = Homo sapiens, Breast cancer cell line MDA-MB-468, 72 hours, CellTiter-Glo, read-out: IC50, MDA-MB-468
[9] = Homo sapiens, Breast cancer cell line SK-BR-3, 72 hours, CellTiter-Glo, read-out: IC50, SK-BR-3
[10] = Homo sapiens, BT-20 cells, 72 hours treatment, CellTiter-Glo cell viability, read-out: IC50, Breast cancer cell line BT-20
[11] = Homo sapiens, HCC1395 cells, 72 hours treatment, CellTiter-Glo cell viability, read-out: IC50, Breast cancer cell line HCC1395
[12] = Homo sapiens, HCC1954 cells, 72 hours treatment, CellTiter-Glo cell viability, read-out: IC50, Breast cancer cell line HCC1954
[13] = Homo sapiens, JIMT-1 cells, 72 hours treatment, CellTiter-Glo cell viability, read-out: IC50, Breast cancer cell line JIMT-1
[14] = Homo sapiens, MCF7 cells, 72 hours treatment, CellTiter-Glo cell viability, read-out: IC50, Breast cancer cell line MCF7
[15] = Homo sapiens, MDA-MB-231 cells, 72 hours treatment, CellTiter-Glo cell viability, read-out: IC50, Breast cancer cell line MDA-MB-231
[16] = Homo sapiens, MDA-MB-468 cells, 72 hours treatment, CellTiter-Glo cell viability, read-out: IC50, Breast cancer cell line MDA-MB-468
[17] = Homo sapiens, SK-BR-3 cells, 72 hours treatment, CellTiter-Glo cell viability, read-out: IC50, Breast cancer cell line SK-BR-3
[18] = MDA-MB-231-L/DOX cells, 72 hours treatment, CellTiter-Glo cell viability, read-out: IC50, Breast cancer cell line MDA-MB-231-L/DOX

Row | SMILES | IC50 [1] [nM] | IC50 [2] [nM] | IC50 [3] [nM] | IC50 [4] [nM] | IC50 [5] [nM] | IC50 [6] [nM] | IC50 [7] [nM] | IC50 [8] [nM] | IC50 [9] [nM] | IC50 [10] [nM] | IC50 [11] [nM] | IC50 [12] [nM] | IC50 [13] [nM] | IC50 [14] [nM] | IC50 [15] [nM] | IC50 [16] [nM] | IC50 [17] [nM] | IC50 [18] [nM]
1 | COc1cc(C[S+]([O-])c2[nH]c3c(Br)ccc(Cl)c3c(=O)c2C(C)=O)cc(OC)c1 (stereo not drawn) [Compound 59, 3-acetyl-8-bromo-5-chloro-2-((3,5-dimethoxybenzyl)sulfinyl)quinolin-4(1H)-one] | > 2000 | > 2000 | > 10000 | > 2000 | > 10000 | > 2000 | > 2000 | > 2000 | 1080 | – | – | – | – | – | – | – | – | –
2 | CC(=O)c1c([S+]([O-])Cc2ccc(I)cc2)[nH]c2c(Cl)ccc(Cl)c2c1=O (stereo not drawn) [Compound 83, 3-acetyl-5,8-dichloro-2-((4-iodobenzyl)sulfinyl)quinolin-4(1H)-one] | – | – | – | – | – | – | – | – | – | > 2000 | > 10000 | 1450 | > 10000 | > 2000 | 1950 | 1760 | 1210 | > 2000
3 | CC(=O)c1c([S+]([O-])Cc2ccc(SC(F)(F)F)cc2)[nH]c2c(Br)ccc(Cl)c2c1=O (stereo not drawn) [Compound 56, 3-acetyl-8-bromo-5-chloro-2-((4-((trifluoromethyl)thio)benzyl)sulfinyl)quinolin-4(1H)-one] | > 2000 | > 2000 | > 10000 | 1470 | > 10000 | > 2000 | 1450 | 1640 | 1380 | – | – | – | – | – | – | – | – | –
4 | CC(=O)c1c([S+]([O-])Cc2ccc(OC(F)(F)F)cc2)[nH]c2c(Br)ccc(Cl)c2c1=O (stereo not drawn) [Compound 71, 3-acetyl-8-bromo-5-chloro-2-((4-(trifluoromethoxy)benzyl)sulfinyl)quinolin-4(1H)-one] | > 2000 | > 2000 | > 10000 | > 2000 | > 10000 | > 2000 | > 2000 | > 2000 | 1550 | – | – | – | – | – | – | – | – | –
5 | CC(=O)c1c([S+]([O-])Cc2ccc(C(C)(C)C)cc2)[nH]c2c(Br)ccc(Cl)c2c1=O (stereo not drawn) [Compound 60, 3-acetyl-8-bromo-2-((4-(tert-butyl)benzyl)sulfinyl)-5-chloroquinolin-4(1H)-one] | > 2000 | > 2000 | > 10000 | > 2000 | > 10000 | > 2000 | > 2000 | > 2000 | 1880 | – | – | – | – | – | – | – | – | –
6 | Cc1cc(C[S+]([O-])c2[nH]c3c(Br)ccc(Cl)c3c(=O)c2C(=O)C(C)C)no1 (stereo not drawn) [Compound 95, 8-bromo-5-chloro-3-isobutyryl-2-(((5-methylisoxazol-3-yl)methyl)sulfinyl)quinolin-4(1H)-one] | – | – | – | – | – | – | – | – | – | 1870 | > 10000 | 480 | > 2000 | 1290 | 1410 | 470 | 470 | 1030

Source: patent publication US11464770B2, “Anticancer pharmaceutical composition” (NATIONAL CANCER CENTER, priority 2016, dated 2022)
